Measurements taken from patent publication US12053506B2, “Romo1-derived antimicrobial peptides and variants thereof” (priority 2019, dated 2024).
≈ marks a conversion by molar mass, not a printed value. Read-outs that look alike come from different tables or passages of the source. Non-standard residues stand in square brackets, D forms with d. Residues, ends and D or L forms follow the SMILES beside them. No end group written: not given here.

B1: MPVAVGPYGQSQPSCFDRVKMGFVMGCAVGMAAGALFGTFSCLRIGMRGRELMGGIGKTMMQSGGTFGTFMAIGMGIRC (protein)
chain: MPVAVGPYGQSQPSCFDRVKMGFVMGCAVGMAAGALFGTFSCLRIGMRGRELMGGIGKTMMQSGGTFGTFMAIGMGIRC
modifications: Homo sapiens Romo1

Key:
CRPA = experiment: MBC, evaluation of antibacterial activities of KU-5878 variants; type: cell-based; details: Tables 11-15, no unit printed
Protocol: Variants were prepared by deleting one amino acid from the amino acid sequence of KU-5878 (SEQ ID NO: 13), and the antibacterial activities thereof were evaluated.
Variants were prepared by deleting two or more amino acids from the amino acid sequence of KU-5878 (SEQ ID NO: 13), and the antibacterial activities thereof were evaluated.
One amino acid in the amino acid sequence of KU-5878 (SEQ ID NO: 13) was substituted, and the antibacterial activities of the peptides were evaluated.
Substitutions of Q62K, S63K and T66K were sequentially added to the amino acid sequence of KU-5878-T59K, and the antibacterial activities of the peptides were evaluated.
An amino acid repeat sequence was added to the C-terminus of KU-5878, and the antibacterial activities of the peptides were evaluated. According to Table 15 below, when the R (arginine) repeat sequence or K (lysine) sequence was added to the C-terminus of KU-5878, the antibacterial activity of the peptide increased.

[1] = test system: Staphylococcus aureus (ATCC 29213); type: cell-based; details: for MBC Staphylococcus aureus: Tables 11-15, no unit printed
Excerpt: (§1) Romo1 protein comprises two α-helices. The present inventors synthesized the α-helix 2 region having both hydrophilicity and hydrophobicity, and evaluated the antibacterial activity thereof using minimum bactericidal concentration (MBC) assay. The α-helix 2 region was named KU-5279 (the 52-79 amino acid region of Romo1 protein). Then, in order to identify peptides that are beneficial for human application and have excellent antibacterial activity, the present inventors synthesized several peptides comprising a sequence of contiguous amino acids starting at any amino acid selected from the 52-79 amino acid region of Romo1 protein, and comparatively evaluated the antibacterial activities of the peptides by minimum bactericidal concentration assay (See Table 1 below for information on each peptide). Evaluation of the antibacterial activity of each peptide by minimum bactericidal concentration assay was specifically performed as follows. First, each of Pseudomonas aeruginosa (ATCC 27853) and Staphylococcus aureus (ATCC 29213) was cultured in 3% (w/v) TSB (Tryptic Soy Broth) liquid medium at 37° C. and 200 rpm for 4 hours, and then further cultured under the same conditions for 3 hours to a concentration of 5×10^6 CFU/ml. Strain solutions were prepared by diluting each of the further cultured strains with SP (sodium phosphate; 10 mM sodium phosphate, 1% TSB) buffer to a final concentration of 2×10^5 CFU/ml. Then, each peptide at varying concentrations (0 μg/ml to 300 μg/ml) was dispensed into each well of a 96-well microplate, and 100 μl (1×10^5 CFU/ml) of each of the prepared strain solutions was added thereto, mixed therewith, and allowed to react with the peptide in an incubator at 37° C. for 1 hour. In addition, 30 g/L of TS (tryptic soy) and 15 g/L of agar were dissolved in distilled water and sterilized, and then 25 ml of the solution was poured onto a 100 mm round plate and solidified at room temperature for one day or more, thereby preparing a TS agar plate. 10 μl of each reaction solution of the peptide and the strain was plated on the TS agar plate at a constant size, and incubated in an incubator at 37° C. for 18 hours, and then colony formation on the plate was checked. The minimum bactericidal concentration was defined as the minimum concentration of the peptide at which no colony was formed, and the experimental results are shown in Table 1 below.

[2] = test system: Pseudomonas aeruginosa (ATCC 27853); type: cell-based; details: for MBC Pseudomonas aeruginosa: Tables 11-15, no unit printed
Excerpt: as §1

[3] = test system: methicillin-resistant Staphylococcus aureus (ATCC 33591); details: Tables 11-15, no unit printed
Protocol: First, each of Pseudomonas aeruginosa (ATCC 27853) and Staphylococcus aureus (ATCC 29213) was cultured in 3% (w/v) TSB (Tryptic Soy Broth) liquid medium at 37° C. and 200 rpm for 4 hours, and then further cultured under the same conditions for 3 hours to a concentration of 5×10^6 CFU/ml. Strain solutions were prepared by diluting each of the further cultured strains with SP (sodium phosphate; 10 mM sodium phosphate, 1% TSB) buffer to a final concentration of 2×10^5 CFU/ml.
(§2) Then, each peptide at varying concentrations (0 μg/ml to 300 μg/ml) was dispensed into each well of a 96-well microplate, and 100 μl (1×10^5 CFU/ml) of each of the prepared strain solutions was added thereto, mixed therewith, and allowed to react with the peptide in an incubator at 37° C. for 1 hour.
In addition, 30 g/L of TS (tryptic soy) and 15 g/L of agar were dissolved in distilled water and sterilized, and then 25 ml of the solution was poured onto a 100 mm round plate and solidified at room temperature for one day or more, thereby preparing a TS agar plate. 10 μl of each reaction solution of the peptide and the strain was plated on the TS agar plate at a constant size, and incubated in an incubator at 37° C. for 18 hours, and then colony formation on the plate was checked.
Specifically, each type of bacteria was cultured in 3% (w/v) TSB (Tryptic Soy Broth) liquid medium at 37° C. and 200 rpm for 4 hours, and then further cultured under the same conditions for 3 hours to a concentration of 5×10^6 CFU/ml. Strain solutions were prepared by diluting each of the […] of 2×10^5 CFU/ml.
as §2, with “Then, the KU-5878” for “Then, each”
In addition, 10 μl of each reaction solution of the peptide and the strain was plated on the TS agar plate at a constant size, and incubated in an incubator at 37° C. for 18 hours, and then colony formation on the plate was checked.

Molecule	MBC CRPA (CRPA) [µg/mL]	MBC Staphylococcus aureus [1] [µg/mL]	MBC Pseudomonas aeruginosa [2] [µg/mL]	MBC MRSA [3] [µg/mL]	MBC value (μg/ml) against Staphylococcus aureus ([1]; ATCC 29213, 1 h) [µg/mL]	MBC value (μg/ml) against Pseudomonas aeruginosa ([2]; ATCC 27853, 1 h) [µg/mL]	further results
KTMMQSGGSFGTFMAIGMGIR [KU-5878-T66S]	> 300	> 300	> 300	> 300	–	–	–
KTMMQSGGTFGTFMAIGMGIRKK [Peptide 5878-KK]	16	16	15	16	–	–	–
CC[C@@H](C)[C@@H](NC(=O)CNC(=O)[C@@H](CCSC)NC(=O)CNC(=O)[C@H](NC(=O)[C@@H](C)NC(=O)[C@@H](CCSC)NC(=O)[C@@H](Cc1ccccc1)NC(=O)[C@H](NC(=O)CNC(=O)[C@@H](Cc1ccccc1)NC(=O)[C@H](NC(=O)CNC(=O)CNC(=O)[C@@H](CO)NC(=O)[C@@H](CCC(N)=O)NC(=O)[C@@H](CCSC)NC(=O)[C@@H](CCSC)NC(=O)[C@H](NC(=O)[C@H](N)CCCCN)[C@H](C)O)[C@H](C)O)[C@H](C)O)[C@H](C)CC)C(=O)N[C@H](CCCNC(=N)N)C(=O)O [KU-5878-D(all)] (H-[dK][dT][dM][dM][dQ][dS]GG[dT][dF]G[dT][dF][dM][dA][dI]G[dM]G[dI][dR]-OH; N-terminus and C-terminus assumed)	–	–	–	–	–	–	MBC (μg/ml) value against Staphylococcus aureus ([1]; ATCC 29213, 1 h): 300 µg/mL (≈ 135 µM); MBC (μg/ml) value against Pseudomonas aeruginosa ([2]; ATCC 27853, 1 h): 300 µg/mL (≈ 135 µM)
KTMMQSGGTFGTFMAIGMGKR [KU-5878-I77K]	> 300	> 300	> 300	> 300	>300	>300	–
KTMMQAGGTFGTFMAIGMGIR [KU-5878-S63A]	300	300	300	> 300	–	–	–
KTMMQRGGTFGTFMAIGMGIR [KU-5878-S63R]	20	15	20	25	–	–	–
KTMMQSGGTFGTFMAIGMGIRRRR [Peptide 5878-3R]	8	8	8	10	–	–	–
KTMMQSGGTFGT-MAIGMGIR [Peptide 5878-d70F]	200	200	200	200	–	–	–
KTMMQSGGTFGTFMAIGMG [KU-5876]	–	–	–	–	>300	>300	–
KTMMQSGGTFGTFMAIGMGGR [KU-5878-I77G]	100	90	80	90	90	80	–
KTAMQSGGTFGTFMAIGMGIR [KU-5878-M60A]	> 300	> 300	> 300	> 300	>300	>300	–
KTMMQSGGTFGTWMAIGMGIR [KU-5878-F70W]	300	300	300	> 300	300	300	–
KT-MQS-GTFGTF--IG-GIR [5878-d60M, d64G, d71M, d72A, d75M]	200	200	200	200	–	–	–
KHMMQSGGTFGTFMAIGMGIR [KU-5878-T59H]	> 300	> 300	> 300	> 300	–	–	–
KTMMQSGGTFGTF-AIGMGIR [Peptide 5878-d71M]	300	250	250	300	–	–	–
KTMMASGGTFGTFMAIGMGIR [KU-5878-Q62A]	> 300	> 300	> 300	> 300	–	–	–
KTMM-SGGTFGTFMAIGMGIR [Peptide 5878-d62Q]	100	90	100	100	–	–	–
KTMMRSGGTFGTFMAIGMGIR [KU-5878-Q62R]	80	80	80	90	–	–	–
-TMMQSGGTFGTFMAIGMGIR [Peptide 5878-d58K]	300	300	300	> 300	–	–	–
KTMMQSGGHFGTFMAIGMGIR [KU-5878-T66H]	> 300	> 300	> 300	> 300	–	–	–
KTMMHSGGTFGTFMAIGMGIR [KU-5878-Q62H]	> 300	> 300	> 300	> 300	–	–	–
KTMMQSGGTFGTFMAIGM [KU-5875]	–	–	–	–	>300	>300	–
GGIGKTMMQSGGTFGTFMAIGMGIRC [KU-5479]	–	–	–	–	200	–	–
KTMMQSGGTFGTFMAIGMGI [KU-5877]	–	–	–	–	>300	>300	–
GKTMMQSGGTFGTFMAIGMGIRC [KU-5779]	–	–	–	–	250	280	–
KTMMQSGGTFGTFMAIGMGIRC [KU-5879]	–	–	–	–	–	150	–
GKTMMQSGGTFGTFMAIGMGIR [KU-5778]	–	–	–	–	280	300	–
KTMMQSGGTFGTFMAIGMGIR-NH2 [KU-5878-NH2]	–	–	–	–	70	60	–
CLRIGMRGRELMGGIGKTM [pCM19, reference compound]	–	–	–	–	250	300	–
B1	–	–	–	–	–	–	MBC value (μg/ml) against Staphylococcus aureus ([1]; ATCC 29213, 1 hour reaction at 37° C.): Insoluble; MBC value (μg/ml) against Pseudomonas aeruginosa ([2]; ATCC 27853, 1 hour reaction at 37° C.): Insoluble
